Experimental data: the NIST ThermoML archive (doi:10.1007/s10765-010-0766-0)
Values joined by “and” are separate entries in the source; they are usually repeats but may differ in a detail not shown here. Equal entries are not always repeated.

Assay: molar heat capacity at constant volume; wn = mass fraction of the nth substance listed
Conditions: Liquid, Vacuum adiabatic calorimetry, w2 = 0.4981

FC(F)C(F)(F)F [pentafluoroethane] + FCF
Conditions | molar heat capacity at constant volume
277.15 K, 11982 kPa | 66.66 J/K/mol
278.15 K, 12826 kPa | 66.08 J/K/mol
279.15 K, 13669 kPa | 66.51 J/K/mol
280.15 K, 14512 kPa | 66.73 J/K/mol
281.15 K, 15355 kPa | 66.15 J/K/mol
282.15 K, 16198 kPa | 66.44 J/K/mol
283.15 K, 17040 kPa | 65.86 J/K/mol
284.15 K, 17881 kPa | 67.75 J/K/mol
285.15 K, 18722 kPa | 66.22 J/K/mol
286.15 K, 19563 kPa | 66.08 J/K/mol
287.15 K, 20403 kPa | 66.15 J/K/mol
288.15 K, 21239 kPa | 65.93 J/K/mol
289.15 K, 22077 kPa | 67.1 J/K/mol
291.15 K, 23750 kPa | 66.88 J/K/mol
292.15 K, 24585 kPa | 66.81 J/K/mol
293.15 K, 25420 kPa | 65.64 J/K/mol
294.15 K, 26254 kPa | 66.37 J/K/mol
295.15 K, 27085 kPa | 65.28 J/K/mol
296.15 K, 27917 kPa | 67.31 J/K/mol
297.15 K, 8118 kPa | 66.88 J/K/mol
297.15 K, 28747 kPa | 66.22 J/K/mol
298.15 K, 29575 kPa | 66.01 J/K/mol
299.15 K, 9422 kPa | 68.48 J/K/mol
300.15 K, 10072 kPa | 69.35 J/K/mol
300.15 K, 10089 kPa | 66.22 J/K/mol
301.15 K, 10723 kPa | 68.99 J/K/mol
301.15 K, 10737 kPa | 69.93 J/K/mol
302.15 K, 11374 kPa | 69.2 J/K/mol
302.15 K, 11385 kPa | 67.31 J/K/mol
303.15 K, 12024 kPa | 69.2 J/K/mol
303.15 K, 12032 kPa | 68.7 J/K/mol
304.15 K, 12672 kPa | 68.91 J/K/mol
304.15 K, 12680 kPa | 68.77 J/K/mol
305.15 K, 13320 kPa | 69.57 J/K/mol
305.15 K, 13327 kPa | 69.06 J/K/mol
306.15 K, 13970 kPa | 69.06 J/K/mol
306.15 K, 13973 kPa | 68.99 J/K/mol
307.15 K, 14620 kPa | 68.62 J/K/mol and 68.33 J/K/mol
308.15 K, 15268 kPa | 69.71 J/K/mol and 68.11 J/K/mol
309.15 K, 15915 kPa | 68.62 J/K/mol
309.15 K, 15917 kPa | 69.57 J/K/mol
310.15 K, 16562 kPa | 68.55 J/K/mol
310.15 K, 16564 kPa | 68.84 J/K/mol
311.15 K, 17208 kPa | 69.13 J/K/mol
311.15 K, 17212 kPa | 68.99 J/K/mol
312.15 K, 17853 kPa | 68.91 J/K/mol
312.15 K, 17859 kPa | 68.41 J/K/mol
313.15 K, 18499 kPa | 66.81 J/K/mol
313.15 K, 18506 kPa | 68.77 J/K/mol
314.15 K, 19144 kPa | 68.48 J/K/mol
314.15 K, 19153 kPa | 69.13 J/K/mol
315.15 K, 19788 kPa | 68.41 J/K/mol
315.15 K, 19798 kPa | 69.35 J/K/mol
316.15 K, 20432 kPa | 68.55 J/K/mol
316.15 K, 20443 kPa | 68.41 J/K/mol
317.15 K, 21075 kPa | 68.48 J/K/mol
317.15 K, 21088 kPa | 68.62 J/K/mol
318.15 K, 21719 kPa | 67.75 J/K/mol
318.15 K, 21733 kPa | 68.55 J/K/mol
319.15 K, 22362 kPa | 68.33 J/K/mol
319.15 K, 22377 kPa | 67.9 J/K/mol
320.15 K, 23005 kPa | 69.71 J/K/mol
320.15 K, 23021 kPa | 69.2 J/K/mol
321.15 K, 23648 kPa | 67.1 J/K/mol
321.15 K, 23665 kPa | 68.33 J/K/mol
322.15 K, 24289 kPa | 70.15 J/K/mol
322.15 K, 24307 kPa | 68.41 J/K/mol
323.15 K, 24930 kPa | 68.41 J/K/mol
323.15 K, 24949 kPa | 69.71 J/K/mol
324.15 K, 25571 kPa | 68.77 J/K/mol
324.15 K, 25590 kPa | 68.04 J/K/mol
325.15 K, 26210 kPa | 67.61 J/K/mol
325.15 K, 26231 kPa | 68.41 J/K/mol
326.15 K, 26850 kPa | 68.62 J/K/mol
326.15 K, 26871 kPa | 68.11 J/K/mol
327.15 K, 27488 kPa | 68.55 J/K/mol
327.15 K, 27511 kPa | 67.75 J/K/mol
328.15 K, 28127 kPa | 68.62 J/K/mol
328.15 K, 28150 kPa | 68.19 J/K/mol
329.15 K, 5865 kPa | 70.22 J/K/mol
329.15 K, 5904 kPa | 72.11 J/K/mol
329.15 K, 28764 kPa | 69.13 J/K/mol
329.15 K, 28790 kPa | 68.62 J/K/mol
330.15 K, 6231 kPa | 73.78 J/K/mol
330.15 K, 6255 kPa | 72.33 J/K/mol
330.15 K, 6269 kPa | 69.13 J/K/mol
330.15 K, 29402 kPa | 68.04 J/K/mol
330.15 K, 29426 kPa | 67.97 J/K/mol
331.15 K, 6598 kPa | 70.66 J/K/mol
331.15 K, 6620 kPa | 71.09 J/K/mol
331.15 K, 6635 kPa | 70.15 J/K/mol
331.15 K, 30065 kPa | 69.93 J/K/mol
332.15 K, 6965 kPa | 73.2 J/K/mol
332.15 K, 6987 kPa | 73.28 J/K/mol
332.15 K, 7002 kPa | 71.46 J/K/mol
333.15 K, 7333 kPa | 71.39 J/K/mol
333.15 K, 7355 kPa | 71.82 J/K/mol
333.15 K, 7370 kPa | 69.13 J/K/mol
334.15 K, 7700 kPa | 71.17 J/K/mol
334.15 K, 7723 kPa | 71.02 J/K/mol
334.15 K, 7736 kPa | 71.24 J/K/mol
335.15 K, 8069 kPa | 71.02 J/K/mol
335.15 K, 8090 kPa | 72.62 J/K/mol
335.15 K, 8104 kPa | 70.51 J/K/mol
336.15 K, 8438 kPa | 70.73 J/K/mol
336.15 K, 8457 kPa | 69.5 J/K/mol
336.15 K, 8472 kPa | 70.88 J/K/mol
337.15 K, 8807 kPa | 71.02 J/K/mol
337.15 K, 8826 kPa | 71.53 J/K/mol
337.15 K, 8840 kPa | 69.42 J/K/mol
338.15 K, 9176 kPa | 71.02 J/K/mol
338.15 K, 9194 kPa | 71.39 J/K/mol
338.15 K, 9209 kPa | 69.42 J/K/mol
339.15 K, 9546 kPa | 70.66 J/K/mol
339.15 K, 9563 kPa | 71.39 J/K/mol
339.15 K, 9579 kPa | 69.57 J/K/mol
340.15 K, 9916 kPa | 70.3 J/K/mol
340.15 K, 9933 kPa | 70.37 J/K/mol
340.15 K, 9949 kPa | 68.91 J/K/mol
341.15 K, 10286 kPa | 70.44 J/K/mol
341.15 K, 10302 kPa | 70.95 J/K/mol
341.15 K, 10320 kPa | 70.15 J/K/mol
342.15 K, 10657 kPa | 69.79 J/K/mol
342.15 K, 10672 kPa | 70.59 J/K/mol
342.15 K, 10691 kPa | 68.55 J/K/mol
343.15 K, 11028 kPa | 70.15 J/K/mol
343.15 K, 11043 kPa | 71.46 J/K/mol
343.15 K, 11061 kPa | 70.08 J/K/mol
344.15 K, 11399 kPa | 70.08 J/K/mol
344.15 K, 11413 kPa | 70.59 J/K/mol
344.15 K, 11431 kPa | 68.99 J/K/mol
345.15 K, 6187 kPa | 86.29 J/K/mol
345.15 K, 11770 kPa | 69.79 J/K/mol
345.15 K, 11784 kPa | 71.39 J/K/mol
345.15 K, 11802 kPa | 69.35 J/K/mol
346.15 K, 6420 kPa | 87.01 J/K/mol
346.15 K, 12143 kPa | 70.3 J/K/mol
346.15 K, 12155 kPa | 70.37 J/K/mol
346.15 K, 12174 kPa | 68.62 J/K/mol
347.15 K, 6655 kPa | 85.49 J/K/mol
347.15 K, 6657 kPa | 86.07 J/K/mol
347.15 K, 12515 kPa | 70.44 J/K/mol
347.15 K, 12527 kPa | 72.33 J/K/mol
347.15 K, 12547 kPa | 69.35 J/K/mol
348.15 K, 6890 kPa | 85.63 J/K/mol
348.15 K, 6893 kPa | 86.51 J/K/mol
348.15 K, 12887 kPa | 69.06 J/K/mol
348.15 K, 12899 kPa | 70.15 J/K/mol
348.15 K, 12919 kPa | 68.84 J/K/mol
349.15 K, 7127 kPa | 83.74 J/K/mol
349.15 K, 7130 kPa | 86.51 J/K/mol
349.15 K, 13259 kPa | 69.86 J/K/mol
349.15 K, 13271 kPa | 70.95 J/K/mol
349.15 K, 13292 kPa | 69.42 J/K/mol
350.15 K, 7364 kPa | 85.2 J/K/mol
350.15 K, 7368 kPa | 84.47 J/K/mol
350.15 K, 13631 kPa | 69.42 J/K/mol
350.15 K, 13643 kPa | 70.15 J/K/mol
350.15 K, 13664 kPa | 69.28 J/K/mol
351.15 K, 7602 kPa | 84.11 J/K/mol
351.15 K, 7606 kPa | 85.42 J/K/mol
351.15 K, 14004 kPa | 70.08 J/K/mol
351.15 K, 14015 kPa | 70.73 J/K/mol
351.15 K, 14036 kPa | 68.48 J/K/mol
352.15 K, 7841 kPa | 83.23 J/K/mol
352.15 K, 7845 kPa | 84.11 J/K/mol
352.15 K, 14377 kPa | 69.06 J/K/mol
352.15 K, 14387 kPa | 70.22 J/K/mol
352.15 K, 14409 kPa | 68.84 J/K/mol
353.15 K, 8080 kPa | 82.36 J/K/mol
353.15 K, 8084 kPa | 83.16 J/K/mol
353.15 K, 14750 kPa | 70.08 J/K/mol
353.15 K, 14761 kPa | 71.46 J/K/mol
353.15 K, 14783 kPa | 68.41 J/K/mol
354.15 K, 8320 kPa | 83.38 J/K/mol
354.15 K, 8324 kPa | 83.89 J/K/mol
354.15 K, 15123 kPa | 69.5 J/K/mol
354.15 K, 15133 kPa | 70.59 J/K/mol
354.15 K, 15157 kPa | 68.48 J/K/mol
355.15 K, 8560 kPa | 82.73 J/K/mol
355.15 K, 8565 kPa | 84.62 J/K/mol
355.15 K, 15496 kPa | 69.64 J/K/mol
355.15 K, 15507 kPa | 70.59 J/K/mol
355.15 K, 15531 kPa | 69.64 J/K/mol
356.15 K, 8801 kPa | 83.45 J/K/mol
356.15 K, 8806 kPa | 82.87 J/K/mol
356.15 K, 15869 kPa | 70.59 J/K/mol
356.15 K, 15880 kPa | 69.93 J/K/mol
356.15 K, 15904 kPa | 68.99 J/K/mol
